Patent EP4763847A1 (Jiangsu Yahong Meditech Co., Ltd., priority 2023, dated 2025)
Where two headings read alike, the source gives them in different places.

Columns and labels:
HCT116 MTAP KO = assay: Cell proliferation inhibition (CellTiter Glo), HCT116 MTAP KO cells; assay type: cell-based; details: cultured 6 days with compound
Description: (§1) Test Example 2: Test of cell proliferation inhibition activity of the compounds
(§2) HCT116-WT (ATCC, CCL-247) and HCT116 MTAP KO (Cobioer Nanjing, CBP75002) cells were seeded into white low-transparency 96-well sterile cell culture plates at a density of 250 cells per well, respectively. The culture medium was McCoy's 5A Medium + 10% FBS. The plates were incubated overnight at 37°C with 5% CO2. The cells were treated with compounds gradiently with an initial concentration of 10000 nM, 4-fold dilution, and 8 concentration points. The last two columns were control wells with only DMSO added. The treated cells were continued to be cultured for 6 days. On the seventh day, 50 µL of CellTiter Glo® reagent was added to each well. After reacting on a shaker at room temperature for 10 minutes, the chemiluminescence signal in the plate was detected using the chemiluminescence detection method on a BIOTEK H1 multi-mode plate reader. […] Table 2: IC50 values of compounds for HCT116 MTAP KO/WT cell growth inhibition

HCT116-WT = assay: Cell proliferation inhibition (CellTiter Glo), HCT116-WT cells; assay type: cell-based; details: cultured 6 days with compound
Description: as §1, §2

PRMT5-MTA [1] = biological target: T1, PRMT5-MTA (Homo sapiens, UniProt O14744); details: PRMT5+MTA enzyme activity inhibition; PRMT5/MET50 protein 1 nM, 5'-deoxy-5'-adenosine 1 µM, SAM 2.5 µM, Histone H4 substrate 5 nM
Description: (§3) The enzymatic inhibition activity of the compounds against PRMT5-MTA was detected using the AlphaScreen method. A 1× methyltransferase assay buffer IV (Signalchem) was prepared as a dilution solution for each component of the enzymatic reaction. […] The test compounds were added to all wells except the control wells in a 3-fold dilution series of 10 concentration points starting from 1000 nM using a Tecan D300e. After centrifugation at 1000 rpm for 1 minute in a centrifuge, the plate was incubated at 23°C for 15 minutes. Histone H4 substrate at a final concentration of 5 nM was added to the plate at 4 µL per well. After centrifugation at 1000 rpm for 1 minute in a centrifuge, the plate was reacted in an incubator at 23°C for 45 minutes. Anti-Histone H4 (symmetric dimethyl R3) antibody (Abcam) was pre-incubated with 50 µg/mL AlphaScreen Protein A Acceptor beads (PerkinElmer) at room temperature for 10 minutes, and then added to the plate in a volume of 10 µL per well, followed by reaction at room temperature for 1 hour. 10 µL of 50 µg/mL AlphaScreen Streptavidin Donor beads (PerkinElmer) were added to each well, and reacted at room temperature for 1 hour. The signal values in the plate were detected using the Alpha method on an Envision multi-mode plate reader. The IC50 values of the compounds for PRMT5/MET50 enzyme activity inhibition were calculated in Xlfit 5.0 software.

PRMT5-MTA [2] = biological target: T1, PRMT5-MTA; assay: biochemical; details: IC50 (nM), PRMT5+MTA enzyme activity inhibition; PRMT5/MET50 protein 1 nM, 5'-deoxy-5'-adenosine 1 µM, SAM 2.5 µM, Histone H4 substrate 5 nM
Description: as §3

T1 sequence (O14744 whole entry): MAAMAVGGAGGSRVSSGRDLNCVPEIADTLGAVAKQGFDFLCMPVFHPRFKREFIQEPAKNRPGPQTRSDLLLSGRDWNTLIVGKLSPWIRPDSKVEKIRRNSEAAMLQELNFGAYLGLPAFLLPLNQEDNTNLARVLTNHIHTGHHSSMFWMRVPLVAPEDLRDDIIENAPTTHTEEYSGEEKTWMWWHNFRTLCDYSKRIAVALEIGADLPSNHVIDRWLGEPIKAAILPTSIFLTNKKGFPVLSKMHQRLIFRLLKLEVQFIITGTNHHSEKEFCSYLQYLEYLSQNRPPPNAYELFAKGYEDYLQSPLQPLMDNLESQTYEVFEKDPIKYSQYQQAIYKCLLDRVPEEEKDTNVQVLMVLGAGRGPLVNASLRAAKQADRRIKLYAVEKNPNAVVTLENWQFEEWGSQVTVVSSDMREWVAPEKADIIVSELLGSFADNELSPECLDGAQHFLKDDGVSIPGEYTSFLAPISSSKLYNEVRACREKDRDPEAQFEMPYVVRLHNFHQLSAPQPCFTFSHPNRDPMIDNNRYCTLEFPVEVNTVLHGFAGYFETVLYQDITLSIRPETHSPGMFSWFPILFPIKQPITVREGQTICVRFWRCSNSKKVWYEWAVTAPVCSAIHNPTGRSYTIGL
T1 sequence (Q9BQA1 whole entry partner): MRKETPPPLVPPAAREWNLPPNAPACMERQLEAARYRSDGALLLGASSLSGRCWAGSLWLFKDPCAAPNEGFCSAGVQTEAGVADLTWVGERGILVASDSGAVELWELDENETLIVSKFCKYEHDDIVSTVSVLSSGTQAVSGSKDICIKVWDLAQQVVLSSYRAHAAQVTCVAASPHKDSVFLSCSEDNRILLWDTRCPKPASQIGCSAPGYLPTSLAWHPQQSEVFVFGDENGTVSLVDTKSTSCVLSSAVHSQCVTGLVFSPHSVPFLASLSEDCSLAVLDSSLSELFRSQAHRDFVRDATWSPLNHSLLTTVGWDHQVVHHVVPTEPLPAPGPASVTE

| IC50 (HCT116 MTAP KO; Homo sapiens, HCT-116, 144 h) | IC50 (PRMT5-MTA [2]) | IC50 (HCT116-WT; 144 h) | Compound | IC50 (HCT116 MTAP KO) | IC50 (HCT116-WT) | IC50 (PRMT5-MTA [1]) |
| --- | --- | --- | --- | --- | --- | --- |
| – | – | – | 6-((isobutyrylamido(methylamino)methylene)amino)-N-(1-(pyrimidin-2-yl)ethyl)-N-((5 -(trifluoromethyl)pyridin-2-yl)methyl)nicotinamide [Compound 29] | 590 nM | 3730 nM | 8.2 nM |
| 28 nM | 4 nM | 330 nM | CN/C(N)=N\c1ccc(C(=O)N(Cc2ccc(OC(F)(F)F)cn2)[C@H](C)c2ccccc2F)cn1 [Compound 77, (R,Z)-6-((amino(methylamino)methylene)amino)-N-(1-(2-fluorophenyl)ethyl)-N-((5-(trifluoromethoxy)pyridin-2-yl)methyl)nicotinamide] | – | – | – |
| 60 nM | 0.7 nM | 867 nM | CNC(N)=Nc1ccc(C(=O)N(Cc2ccc(C(F)(F)F)cn2)C2CCOc3ccccc32)cn1 (stereo not drawn) [Compound 86] | – | – | – |
| 616 nM | 3.3 nM | 3840 nM | CNC(N)=Nc1ccc(C(=O)N(Cc2ccc(C(F)(F)F)cn2)C(C)c2ccccc2Cl)cn1 (stereo not drawn) [Compound 88] | – | – | – |
| 30 nM | 5.4 nM | 569 nM | CN/C(N)=N\c1ccc(C(=O)N(Cc2ccc(C(F)(F)F)cn2)C(C)c2ncccc2F)cn1 (single isomer, unassigned) [Compound 65] | – | – | – |
| 601 nM | 5.9 nM | 2890 nM | CNC(N)=Nc1ccc(C(=O)N(Cc2cccc(Cl)c2)[C@H](C)c2ccccc2F)cn1 [Compound 106] | – | – | – |
| 145 nM | 5.7 nM | 672 nM | CN/C(N)=N\c1ccc(C(=O)N(Cc2ccc(-c3ccc(N4CCOCC4)nc3)cn2)[C@H](C)c2ccccc2F)cn1 [Compound 67, (R,Z)-6-((amino(methylamino)methylene)amino)-N-(1-(2-fluorophenyl)ethyl)-N-((6'-morpholino-[3,3'-bipyridin]-6-yl)methyl)nicotinamide] | – | – | – |
| 22 nM | 3.5 nM | 366 nM | CN/C(N)=N\c1ccc(C(=O)N(Cc2ccc(C(F)(F)F)cn2)[C@@H]2CCCc3ccccc32)cn1 [Compound 96, (R,Z)-6-((amino(methylamino)methylene)amino)-N-(1,2,3,4-tetrahydronaphthalen-1-yl) -N-((5-(trifluoromethyl)pyridin-2-yl)methyl)nicotinamide] | – | – | – |
| 474 nM | 4 nM | 8230 nM | CNC(N)=Nc1ccc(C(=O)N(Cc2ccncc2)[C@H](C)c2ccccc2F)cn1 [Compound 107] | – | – | – |
| 96 nM | 2.2 nM | 2010 nM | CNC(N)=Nc1ccc(C(=O)N(Cc2ccc(C(F)(F)F)cn2)[C@H](C)c2cccc(F)c2F)cn1 [Compound 91] | – | – | – |
| 63 nM | 3.2 nM | 1960 nM | CNC(N)=Nc1ccc(C(=O)N(Cc2ccc(C(F)(F)F)cn2)N2CCc3ccccc32)cn1 [Compound 64] | – | – | – |
| 51 nM | 2.6 nM | 618 nM | CNC(N)=Nc1ccc(C(=O)N(Cc2ccc(C(F)(F)F)cn2)c2csc3cccnc23)cn1 [Compound 51] | – | – | – |
| 508 nM | 6.2 nM | 3660 nM | CNC(N)=Nc1ccc(C(=O)N(Cc2cccc(F)c2)[C@H](C)c2ccccc2F)cn1 [Compound 110] | – | – | – |
| 31 nM | 1.4 nM | 593 nM | CNC(N)=Nc1ccc(C(=O)N(Cc2ccc(C(F)(F)F)cn2)c2cccc3ccccc23)cn1 [Compound 47] | – | – | – |
| 114 nM | 1.5 nM | 1890 nM | CNC(N)=Nc1ccc(C(=O)N(Cc2ccc(C(F)(F)F)cn2)C(C)c2ccccc2)cn1 (stereo not drawn) [Compound 32] | – | – | – |
| 287 nM | 7.7 nM | 1860 nM | CN/C(N)=N\c1ccc(C(=O)N(Cc2ccc3nc(C)sc3c2)[C@H](C)c2ccccc2F)cn1 [Compound 78, (R,Z)-6-((amino(methylamino)methylene)amino)-N-(1-(2-fluorophenyl)ethyl)-N-((2-methylbenzo[d]thiazol-6-yl)methyl)nicotinamide] | – | – | – |
| 25 nM | 1.7 nM | 512 nM | CNC(N)=Nc1ccc(C(=O)N(Cc2ccc(C(F)(F)F)cn2)c2cccc3nccnc23)cn1 [Compound 50] | – | – | – |
| 24 nM | 1 nM | 275 nM | CNC(N)=Nc1ccc(C(=O)N(Cc2ccc(C(F)(F)F)cn2)c2cccc3cccnc23)cn1 [Compound 45, 6-((amino(methylamino)methylene)amino)-N-(quinolin-8-yl)-N-((5-(trifluoromethyl)pyridin-2-yl)methyl)nicotinamide] | – | – | – |
| – | 2.6 nM | – | CNC(N)=Nc1ccc(C(=O)N(Cc2ccc(C(F)(F)F)cn2)C2CCCc3cccnc32)cn1 (stereo not drawn) [Compound 44] | 17 nM | 493 nM | – |
| 233 nM | 5.4 nM | 2520 nM | CNC(N)=Nc1ccc(C(=O)N(Cc2ccc(-c3cnn(C)c3)cn2)[C@H](C)c2ccccc2F)cn1 [Compound 129] | – | – | – |
| 64 nM | 8.7 nM | 1090 nM | CNC(N)=Nc1ccc(C(=O)N(Cc2ccc3cnccc3c2)[C@H](C)c2ccccc2F)cn1 [Compound 98] | – | – | – |
| 49 nM | 3.2 nM | 2650 nM | CNC(N)=Nc1ccc(C(=O)N(Cc2ccc(C(F)(F)F)cn2)N(C)c2ncccn2)cn1 [Compound 113] | – | – | – |
| 12 nM | 0.6 nM | 421 nM | CNC(N)=Nc1ccc(C(=O)N(Cc2ccc(C(F)(F)F)cn2)[C@H](C)c2ccccc2F)cn1 [Compound 89] | – | – | – |
| 263 nM | 5.7 nM | 2230 nM | CNC(N)=Nc1ccc(C(=O)N(Cc2ccc3ccsc3c2)[C@H](C)c2ccccc2F)cn1 [Compound 105] | – | – | – |
| 352 nM | 3.1 nM | 1790 nM | CNC(N)=Nc1ccc(C(=O)N(Cc2ccc(F)c(C)c2)[C@H](C)c2ccccc2F)cn1 [Compound 101] | – | – | – |
